# Legend:
# Assay type in all cases: biochemical
# SHP-1 = target: T1, SHP-1 (Mus musculus, UniProt P29351); assay: In vitro PTPase assay, GST/SHP-1; details: for inhibitory activity against SHP-1: 3-4 μg/ml or 10-100 μg/ml
# T1 construct: made in house
# Description: In vitro PTPase activities were measured using the commercial protein tyrosine phosphatase assay kit (Upstate Biotechnology, Inc. (“UBI”)) following established procedure known to one of skill in the art. […] Briefly, 0.01 µg of GST/PTPase fusion proteins was incubated in 50 µl of Tris buffer (10 mM Tris, pH 7.4) containing different concentrations of inhibitors or chemicals (0-1,000 µg/ml) at 22° […] 100 µl of Malachite Green solution was added and incubated for 5 minutes, and the absorbance at 660 nm was measured after 5 minutes.
# To assess the reversibility of inhibition of SHP-1 by PTPase inhibitors, GST/SHP-1 fusion protein bound on glutathione beads were pre-incubated in cold Tris buffer or Tris buffer containing the PTPase inhibitors at 4° C. for 30 minutes. The beads were then either subjected to in vitro PTPase assays or washed 3 times in Tris buffer then subjected to in vitro PTPase assays.
# Briefly, individual PTPases (0.1 µg/reaction) in 50 µL of PTPase buffer (50 mM Tris, pH 7.4) were incubated at 22° C. for 10 minutes or as indicated in the absence or presence of inhibitory compounds. Substrates (0.2 mM phosphotyrosine peptide) were then added and allowed to react at 22° C. for 18 hrs. PTPase activity of individual reactions was measured by adding 100 µL of malachite green solution (UBI) and then quantifying the amounts of free phosphate cleaved by the PTPase from the peptide substrate by spectrometry (OD660 nm). […] Relative PTPase activities were calculated based on the formula: (PTPase activity in the presence of an inhibitory compound/PTPase activity in the absence of the compound)× 100%. To assess the reversibility of PTPase inhibition, GST fusion proteins of the PTPases bound on glutathione beads (Pharmacia) were pre-incubated with cold Tris buffer (50 mM Tris, pH 7.0) or Tris buffer containing the inhibitor at 4° C. for 30 minutes. The beads were then washed three times in cold Tris buffer or not washed prior to subjecting to in vitro PTPase assays.
# MKP1 = target: T2, MKP1 (Homo sapiens, UniProt P28562); assay: In vitro PTPase assay, GST/MKP1; details: for inhibition of MKP1: section VII comparison
# T2 construct: made in house; host or cells: E. coli DH5a
# T2 sequence (P28562 13-367 limits assumed): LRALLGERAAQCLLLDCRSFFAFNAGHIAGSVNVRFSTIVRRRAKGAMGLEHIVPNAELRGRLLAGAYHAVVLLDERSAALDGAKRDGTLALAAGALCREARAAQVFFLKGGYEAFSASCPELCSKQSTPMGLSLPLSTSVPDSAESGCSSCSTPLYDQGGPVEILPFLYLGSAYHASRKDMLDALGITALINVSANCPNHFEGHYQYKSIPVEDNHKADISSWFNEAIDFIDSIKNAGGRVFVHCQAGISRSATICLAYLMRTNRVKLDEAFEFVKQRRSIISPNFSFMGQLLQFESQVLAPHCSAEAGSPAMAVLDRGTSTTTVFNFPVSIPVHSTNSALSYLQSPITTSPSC
# Description: In vitro PTPase activities were measured using the commercial protein tyrosine phosphatase assay kit (Upstate Biotechnology, Inc. (“UBI”)) following established procedure known to one of skill in the art. This assay measures the in vitro dephosphorylation of a synthetic phosphotyrosine peptide of the sequence Arg-Arg-Leu-Ile-Glu-Asp-Ala-Gle-T- -yr-Ala-Ala-Arg-Gly, wherein the tyrosine is phosphorylated (SEQ ID NO: 3). Briefly, 0.01 µg of GST/PTPase fusion proteins was incubated in 50 µl of Tris buffer (10 mM Tris, pH 7.4) containing different concentrations of inhibitors or chemicals (0-1,000 µg/ml) at 22° C. for 10 minutes, followed by addition of 0.2 mM of the phosphotyrosine peptide and incubation at 22° C. for 18 hours. 100 µl of Malachite Green solution was added and incubated for 5 minutes, and the absorbance at 660 nm was measured after 5 minutes.
# (§1) In vitro PTPase assays were used to determine the effects of levamisole (Sigma), pentamidine (American Pharmaceutical Partners, Inc.), and ketoconazole (Sigma) on recombinant PTPases, following established procedures (Pathak et al., J. Imumol. 167, 3391 (2001); Pathak et al., Leukemia 16, 2285 (2002), Yi et al., J. Immunol. 169, 5978 (2002)) using a synthetic phosphotyrosine peptide or DiFMUP as the substrate as detailed above in section I.A.2.
# GSTm8 = assay: In vitro PTPase assay, GSTm8; details: 3-4 μg/ml or 10-100 μg/ml
# Excerpt: as §1
inhibitory activity against SHP-1 (SHP-1),inhibition of MKP1 (MKP1),inhibitory activity against GSTm8 (GSTm8),Compound,"activity against recombinant SHP-1 (SHP-1; HPLC fractions, parental mixture at Sb 10 μg/ml)","dephosphorylation of pNPP by these PTPases (SHP-1; pNPP substrate, SHP-1, SHP-2 and PTP1B)","inhibition of GST/SHP-1 after washing (reversibility) (SHP-1; pre-incubated with inhibitor, beads washed)",inhibitory activity against MKP1 (MKP1)
no obvious inhibitory activity,substantial inhibition,no obvious inhibitory activity,CC(=O)N1CCN(c2ccc(OCC3COC(Cn4ccnc4)(c4ccc(Cl)cc4Cl)O3)cc2)CC1 (centres unmarked) [ketoconazole],–,–,–,–
no obvious inhibitory activity,substantial inhibition,no obvious inhibitory activity,N=C(N)c1ccc(OCCCCCOc2ccc(C(=N)N)cc2)cc1 [pentamidine],–,–,–,–

Compound,inhibitory activity against SHP-1 (SHP-1),inhibition of MKP1 (MKP1),inhibitory activity against GSTm8 (GSTm8),"activity against recombinant SHP-1 (SHP-1; HPLC fractions, parental mixture at Sb 10 μg/ml)","dephosphorylation of pNPP by these PTPases (SHP-1; pNPP substrate, SHP-1, SHP-2 and PTP1B)","inhibition of GST/SHP-1 after washing (reversibility) (SHP-1; pre-incubated with inhibitor, beads washed)",inhibitory activity against MKP1 (MKP1)
O.O.O.O.O.O.O.O.O.O=C([O-])[C@@H]1[O][Sb]2([O-])([O][Sb]34([OH])[O][C@H]([C@H](O)CO)[C@H]([O]3)[C@H](C(=O)[O-])[O]4)[O][C@H]([C@H](O)CO)[C@@H]1[O]2.[Na+].[Na+].[Na+] [sodium stibogluconate],–,no obvious effects,–,inactivated SHP-1,similarly inhibited,not affected by washing,no obvious inhibitory activity

# Source: US20080089860A1, “Therapeutic compositions and methods useful in treating cancer” (priority 2006, published 2008)
